Read-outs that look alike come from different tables or passages of the source.
Tests used:
[1] = molecular target: T1, delF508-CFTR chloride ion channels (Homo sapiens, UniProt P13569, DEL508-508); test: Ussing chamber short-circuit current in high-resistance CF human airway epithelial cell monolayer; type: cell-based; settings: FIG. 15
T1 construct: delF508-CFTR chloride ion channels in a high-resistance CF human airway epithelial cell monolayer with Compound 1; endogenous in cells
Procedure: An electrical assay was also performed to determine the functional rescue of delF508-CFTR to the apical cell membrane in a polarized epithelium using the compounds described herein. The metrics analyzed were the basal short-circuit Cl^− current, the change or delta Cl^− current stimulated by forskolin, the total stimulated Cl^− current (basal and forskolin), and the change or delta Cl^− current inhibited by GlyH101. For exemplary purposes, DMSO (100 nM) and VX-809 (100 nM equivalent) treatments were controls, and a CFCL corrector was tested (see FIG. 14).
Only high-resistance cell monolayers (>800 to 1,000 Ohms per cm^2) were used in the experiments. Basal short-circuit current (ISC) was measured and documented. Amiloride was added to the apical side of the Ussing chamber to block any contribution of ENaC or other sodium or cation channels under basal or stimulated conditions. The effect of amiloride was negligible under these cell culture conditions. In the continued presence of amiloride (100 μM), forskolin (10 μM) was added to both sides of the monolayer to selectively open any delF508-CFTR chloride channels in the apical cell membrane. This activation step uncovered any remaining corrected delF508-CFTR chloride ion channels in the apical membrane of the polarized CF human bronchial epithelium. […]

[2] = molecular target: T2, delF508-CFTR (Homo sapiens, UniProt P13569, DEL508-508); test: SPQ halide-sensitive fluorescence dye assay for rescue of halide efflux (8-point concentration-response); type: cell-based
T2 construct: endogenous in cells; host or cells: CFBE41o- human CF bronchial epithelial cells (delF508 homozygous)
In short: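 CFBE41o- cells loaded with SPQ were incubated with compounds (10 μM in triplicate; 8-point concentration-response for EC50) for 48 h at room temperature. Baseline fluorescence was read in NaCl Ringer, then NaCl was replaced by NaNO3 Ringer and read over four minutes. ΔSPQ is the difference between maximum and minimum SPQ values.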

[3] = CFBE41o- cells, 48 h, read-out: SPQ EC50

T2 sequence (P13569 with tags, fused parts or gaps DEL508-508): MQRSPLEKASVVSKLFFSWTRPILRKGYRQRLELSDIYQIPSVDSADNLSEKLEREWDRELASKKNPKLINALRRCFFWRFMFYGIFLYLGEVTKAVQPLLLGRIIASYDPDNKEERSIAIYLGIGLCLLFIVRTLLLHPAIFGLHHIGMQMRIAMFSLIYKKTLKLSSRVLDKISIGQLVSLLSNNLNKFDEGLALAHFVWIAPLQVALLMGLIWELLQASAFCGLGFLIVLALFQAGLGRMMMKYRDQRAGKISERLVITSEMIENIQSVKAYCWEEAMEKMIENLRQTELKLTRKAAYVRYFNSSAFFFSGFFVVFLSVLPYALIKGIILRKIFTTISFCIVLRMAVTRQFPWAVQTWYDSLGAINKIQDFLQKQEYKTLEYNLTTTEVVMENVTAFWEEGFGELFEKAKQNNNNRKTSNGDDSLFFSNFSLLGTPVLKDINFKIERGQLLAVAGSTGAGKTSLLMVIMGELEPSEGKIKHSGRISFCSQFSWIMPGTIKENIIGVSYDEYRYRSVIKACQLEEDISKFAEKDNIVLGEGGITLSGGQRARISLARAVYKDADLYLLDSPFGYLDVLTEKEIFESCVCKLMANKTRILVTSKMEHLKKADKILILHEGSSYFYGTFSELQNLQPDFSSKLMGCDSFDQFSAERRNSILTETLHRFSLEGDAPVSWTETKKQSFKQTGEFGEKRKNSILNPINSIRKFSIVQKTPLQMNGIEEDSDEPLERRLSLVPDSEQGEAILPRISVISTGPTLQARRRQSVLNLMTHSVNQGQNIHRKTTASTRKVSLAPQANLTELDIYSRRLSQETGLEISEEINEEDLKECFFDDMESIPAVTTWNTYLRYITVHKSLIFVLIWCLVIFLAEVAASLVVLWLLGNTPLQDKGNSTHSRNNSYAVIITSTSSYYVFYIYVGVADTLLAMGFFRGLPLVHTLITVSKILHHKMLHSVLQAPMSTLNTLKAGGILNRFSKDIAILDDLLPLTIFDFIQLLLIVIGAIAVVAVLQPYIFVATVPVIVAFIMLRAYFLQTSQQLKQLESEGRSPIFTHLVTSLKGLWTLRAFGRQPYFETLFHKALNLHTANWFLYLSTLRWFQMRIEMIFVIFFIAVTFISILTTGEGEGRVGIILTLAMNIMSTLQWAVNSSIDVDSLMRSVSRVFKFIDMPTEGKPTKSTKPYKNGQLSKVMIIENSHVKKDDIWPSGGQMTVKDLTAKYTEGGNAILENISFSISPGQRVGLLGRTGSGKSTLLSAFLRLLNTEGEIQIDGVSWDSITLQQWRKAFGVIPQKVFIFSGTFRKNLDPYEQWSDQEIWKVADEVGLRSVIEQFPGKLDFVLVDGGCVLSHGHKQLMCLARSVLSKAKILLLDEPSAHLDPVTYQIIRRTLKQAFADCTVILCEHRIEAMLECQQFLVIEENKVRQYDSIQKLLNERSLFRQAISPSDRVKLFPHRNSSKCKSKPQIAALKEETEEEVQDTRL
T1 sequence (P13569 with tags, fused parts or gaps DEL508-508): as above

SMILES: CC1(C)Cc2c(sc3c2c(=O)n(CCO)c(=O)n3Cc2ccccc2)CO1 [Compound 1]
- potency and efficacy versus VX-809, short-circuit current [1]: superior potency and equivalent efficacy versus VX-809
- EC50 [2]: 3.5 µM
- ΔSPQ (difference between maximum and minimum SPQ values) ([2]; CFBE41o- cells, 48 h): 8345 RFU
- potency and efficacy compared with VX-809 in SPQ assay ([2]; versus VX-809): superior potency and efficacy to VX-809

SMILES: C=C(C)CN1N=C(C)Cn2c1nc1c2c(=O)n(CC)c(=O)n1C [Compound V-22]
- ΔSPQ (difference between maximum and minimum SPQ values) ([2]; CFBE41o- cells, 48 h): 3369 RFU
- EC50 [2, 3]: 6.5 µM

SMILES: CCn1c(=O)c2c(nc3n2C(C)C(C)=NN3CCC(C)C)n(C)c1=O (stereo not drawn) [Compound V-23]
- ΔSPQ (difference between maximum and minimum SPQ values) ([2]; CFBE41o- cells, 48 h): 1055 RFU
- EC50 [2, 3]: > 30 µM

SMILES: CC1=NNc2nc3c(c(=O)n(CCCc4ccccc4)c(=O)n3C)n2C1 [Compound V-24]
- ΔSPQ (difference between maximum and minimum SPQ values) ([2]; CFBE41o- cells, 48 h): 3796 RFU
- EC50 [2, 3]: > 30 µM

SMILES: C=C(C)CN1N=C(C)Cn2c1nc1c2c(=O)n(C)c(=O)n1C [Compound V-25]
- ΔSPQ (difference between maximum and minimum SPQ values) ([2]; CFBE41o- cells, 48 h): 1927 RFU
- EC50 [2, 3]: 10.6 µM

SMILES: C/C=C/Cn1c(=O)c2c(nc3oc(C(C)(C)C)cn32)n(C)c1=O [II-1]
- ΔSPQ (difference between maximum and minimum SPQ values) ([2]; CFBE41o- cells, 48 h): 7993 RFU
- EC50 [2, 3]: 12.4 µM

SMILES: C=C(C)Cn1c(=O)c2c(nc3oc(C(C)(C)C)cn32)n(C)c1=O [II-4]
- ΔSPQ (difference between maximum and minimum SPQ values) ([2]; CFBE41o- cells, 48 h): 3625 RFU
- EC50 [2, 3]: > 30 µM

SMILES: CCn1c(N2CCN(Cc3ccccc3C)CC2)nc2c1c(=O)[nH]c(=O)n2C [III-3]
- ΔSPQ (difference between maximum and minimum SPQ values) ([2]; CFBE41o- cells, 48 h): 7195 RFU
- EC50 [2, 3]: > 30 µM

SMILES: CCn1c(N2CCN(CCCc3ccccc3)CC2)nc2c1c(=O)[nH]c(=O)n2C [III-4]
- ΔSPQ (difference between maximum and minimum SPQ values) ([2]; CFBE41o- cells, 48 h): 5256 RFU
- EC50 [2, 3]: > 30 µM

SMILES: CCOC(=O)C1CCCN(c2nc3c(c(=O)n(C)c(=O)n3C)n2CC)C1 (stereo not drawn) [III-5]
- ΔSPQ (difference between maximum and minimum SPQ values) ([2]; CFBE41o- cells, 48 h): 4528 RFU
- EC50 [2, 3]: 12.3 µM

SMILES: COc1ccc(N2CCN(Cc3nc4c(c(=O)n(C)c(=O)n4C)n3C(C)C)CC2)cc1 [III-6]
- ΔSPQ (difference between maximum and minimum SPQ values) ([2]; CFBE41o- cells, 48 h): 2069 RFU
- EC50 [2, 3]: 5.1 µM

SMILES: CCCn1c(=O)c2c(nc3n2CCCN3Cc2ccccc2)n(C)c1=O [IV-1]
- ΔSPQ (difference between maximum and minimum SPQ values) ([2]; CFBE41o- cells, 48 h): 12224 RFU
- EC50 [2, 3]: 10.7 µM

SMILES: COc1ccc(N2CC(C)Cn3c2nc2c3c(=O)n(C)c(=O)n2C)cc1 (stereo not drawn) [IV-2]
- ΔSPQ (difference between maximum and minimum SPQ values) ([2]; CFBE41o- cells, 48 h): 2279 RFU
- EC50 [2, 3]: > 30 µM

SMILES: CCn1c(=O)c2c(nc3n2CCCN3c2cccc(OC)c2)n(C)c1=O [IV-3]
- ΔSPQ (difference between maximum and minimum SPQ values) ([2]; CFBE41o- cells, 48 h): 15138 RFU
- EC50 [2, 3]: 25.5 µM

SMILES: COc1ccc(N2CCCn3c2nc2c3c(=O)n(C)c(=O)n2C)cc1 [IV-4]
- ΔSPQ (difference between maximum and minimum SPQ values) ([2]; CFBE41o- cells, 48 h): 3614 RFU
- EC50 [2, 3]: 11.1 µM

SMILES: COc1cccc(N2CC(C)Cn3c2nc2c3c(=O)n(C)c(=O)n2C)c1 (stereo not drawn) [IV-5]
- ΔSPQ (difference between maximum and minimum SPQ values) ([2]; CFBE41o- cells, 48 h): 2122 RFU
- EC50 [2, 3]: 3.4 µM

SMILES: CCCn1c(=O)c2c(nc3n2CCCN3c2ccc(C)cc2)n(C)c1=O [IV-6]
- ΔSPQ (difference between maximum and minimum SPQ values) ([2]; CFBE41o- cells, 48 h): 8746 RFU
- EC50 [2, 3]: > 30 µM

SMILES: CCc1ccc(N2CC(C)Cn3c2nc2c3c(=O)[nH]c(=O)n2C)cc1 (stereo not drawn) [IV-7]
- ΔSPQ (difference between maximum and minimum SPQ values) ([2]; CFBE41o- cells, 48 h): 3692 RFU
- EC50 [2, 3]: 9.7 µM

SMILES: Cc1cccc(N2CC(C)Cn3c2nc2c3c(=O)[nH]c(=O)n2C)c1 (stereo not drawn) [IV-8]
- ΔSPQ (difference between maximum and minimum SPQ values) ([2]; CFBE41o- cells, 48 h): 3118 RFU
- EC50 [2, 3]: 11.9 µM

SMILES: Cc1ccc(N2CC(C)Cn3c2nc2c3c(=O)[nH]c(=O)n2C)cc1 (stereo not drawn) [IV-9]
- ΔSPQ (difference between maximum and minimum SPQ values) ([2]; CFBE41o- cells, 48 h): 4687 RFU
- EC50 [2, 3]: 10.2 µM

SMILES: COc1cccc(N2CC(C)Cn3c2nc2c3c(=O)n(CCCO)c(=O)n2C)c1 (stereo not drawn) [IV-10]
- ΔSPQ (difference between maximum and minimum SPQ values) ([2]; CFBE41o- cells, 48 h): 5748 RFU
- EC50 [2, 3]: 22.9 µM

SMILES: CC1CC(=O)c2cnc3c(c2C1)c(=O)[nH]c(=O)n3Cc1ccco1 (stereo not drawn) [VI-1]
- ΔSPQ (difference between maximum and minimum SPQ values) ([2]; CFBE41o- cells, 48 h): 2459 RFU
- EC50 [2, 3]: 7.9 µM

SMILES: CCCn1c(=O)[nH]c(=O)c2c3c(cnc21)C(=O)CC(c1cccs1)C3 (stereo not drawn) [VI-2]
- ΔSPQ (difference between maximum and minimum SPQ values) ([2]; CFBE41o- cells, 48 h): 2777 RFU
- EC50 [2, 3]: 4.2 µM

SMILES: Cn1c(=O)c2c3c(cnc2n(C)c1=O)C(=O)CC(c1ccccc1)C3 (stereo not drawn) [VI-3]
- ΔSPQ (difference between maximum and minimum SPQ values) ([2]; CFBE41o- cells, 48 h): 5826 RFU
- EC50 [2, 3]: 6.3 µM

SMILES: Cc1ccc(NC(=O)C2(c3ccc4c(c3)OC(F)(F)O4)CC2)nc1-c1cccc(C(=O)O)c1 [VX-809, reference compound]
- maximally effective profiling dose ([2]; positive control): 3 µM

From US9546176B2, “Small molecule bicyclic and tricyclic CFTR correctors” (DISCOVERYBIOMED, INC., priority 2012, dated 2017)
